Reference: publication PMC8518382, “Identification of a Bromodomain‐like Region in 15‐Lipoxygenase‐1 Explains Its Nuclear Localization” (Angewandte Chemie (International Ed. in English), 2021)
Several values for one entry are separate records, joined by “and”; a condition that tells them apart may be missing. Identical values can stand only once.

Target: T1, 15-LOX-1 (Homo sapiens, UniProt P16050)
T1 sequence (P16050 1-662): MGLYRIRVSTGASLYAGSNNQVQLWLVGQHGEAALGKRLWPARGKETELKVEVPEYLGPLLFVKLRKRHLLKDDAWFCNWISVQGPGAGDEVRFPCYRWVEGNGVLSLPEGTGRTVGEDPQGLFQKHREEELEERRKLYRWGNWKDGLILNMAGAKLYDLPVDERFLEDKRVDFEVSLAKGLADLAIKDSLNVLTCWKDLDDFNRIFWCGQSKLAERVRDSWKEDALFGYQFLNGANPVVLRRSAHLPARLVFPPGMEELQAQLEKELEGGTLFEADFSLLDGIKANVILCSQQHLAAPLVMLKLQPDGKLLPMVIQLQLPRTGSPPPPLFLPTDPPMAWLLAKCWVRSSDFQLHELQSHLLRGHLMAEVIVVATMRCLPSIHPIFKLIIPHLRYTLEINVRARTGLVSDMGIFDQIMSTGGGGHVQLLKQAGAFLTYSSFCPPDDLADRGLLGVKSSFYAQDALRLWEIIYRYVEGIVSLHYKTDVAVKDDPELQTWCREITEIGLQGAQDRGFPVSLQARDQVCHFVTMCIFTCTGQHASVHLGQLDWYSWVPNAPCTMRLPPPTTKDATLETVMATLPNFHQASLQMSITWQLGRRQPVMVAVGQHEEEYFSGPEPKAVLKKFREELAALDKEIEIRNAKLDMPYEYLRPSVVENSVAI
Assay: 15-LOX-1 activity assay, UV-absorbance change for linoleic acid conversion
Format: biochemical
Parameters: His-tag (N); made in house; host or cells: E. coli BL21(DE3)
Conditions: for Hill-slope: linoleic acid conversion assay; for IC50: 10 min pre-incubation at RT, 25 µM linoleic acid, absorbance 234 nm
Text: In brief, an alkyne‐alcohol was linked to propargyl halide (Cl or Br) using a CuI‐catalyzed Sonogashira cross‐coupling reaction followed by biotinylation of the alcohol using EDCI and HOBt as reagents to provide the desired biotinylated bis‐alkyne probes. The biotinylated bis‐alkynes were subjected to 15‐LOX‐1 binding studies using a 15‐LOX‐1 activity assay based on the UV‐absorbance change for linoleic acid conversion (Figure 1 a). […] Next, we evaluated the effect of the extension of the terminal ethyl substitution of inhibitor 1. […]
empty plasmid was proceed with the same procedure, which lysate was used as the negative control (referred as BL21 control later) in 15-LOX-1 recombinant enzyme inhibition studies.
1.3. Purification of recombinant human 15-LOX-1
The 15-LOX-1 with N-terminal his-tag was produced as described above. After removing the cell debris, the supernatant containing 15-LOX-1 was loaded on a Ni-NTA column (Qiagen, Hilden, Germany) pre-equilibrated with LOX lysis buffer. The column was washed twice with 30 column volume of LOX lysis buffer, and once with 30 column volume of wash buffer (25 mM HEPES, 300 mM NaCl, 25 mM Imidazole, pH 8.0). Later, the 15-LOX-1 was eluted twice with 2 column volume of elution buffer (25 mM HEPES, 300 mM NaCl, 250 mM Imidazole, pH 8.0), followed by desalting with a PD-10 column (Sigma-Aldrich) with LOX storage buffer (25 mM HEPES, 20% Glycerol, pH 7.5). The desalted 15-LOX-1 was further purified and concentrated with Vivaspin Turbo 15 (30.000 MWCO). The protein concentration was determined by Nanodrop spectrophotometry. The 100 μl aliquots of 15-LOX-1 were stored at -20 for further experiments.
15-LOX-1 recombinant enzyme inhibition assay
The 15-LOX-1 inhibition assay has been detailed previously. Briefly, the conversion of linoleic acid to hydroperoxy-(9Z,11E)-octadecadienoic acid (λmax of 234 nm) was used to determine the activity of the 15-LOX-1 enzyme. The conversion rate was the slope of UV-absorbance at 234 nm overtime at the […]
To determine the IC50 of probes, the cell lysate was pre-diluted in LOX assay buffer at a ratio of 1:160. The inhibition assay was done in an F-bottom UV-STAR 96-well plate, in which 50 µl of the diluted enzyme was incubated with 140 µl of a probe diluted in LOX assay buffer for 10 min at room temperature (RT). Later 10 µl of 500 µM linoleic acid dissolved in ethanol was added to the plate to reach a final concentration of 25 µM. The UV-absorbance at 234 nm was determined by a BioTek Synergy H1 plate reader (BioTek, Winooski, VT, USA) . The slope of the 15-LOX-1 sample untreated with the probe was set as 100%, while the slope of the BL21 control sample was set as 0%.
For the determination of enzyme kinetics, a series concentration of linoleic acid was used. Fifty µl of pre-diluted 15-LOX-1 enzyme was incubated with 140 µl of probe solution at a fixed concentration for 10 min at RT. Subsequently, 10 µl of a series concentration of linoleic acid was added to a final concentration ranging from 10 µM to 100 µM. The conversion rate was calculated as the same as […]
described in the IC50 determination assay. Michaelis-Menten plots, Lineweaver-Burk plots, Km, and Vmax, are generated using GraphPad Prism 8.3.0. […]

| Mode of inhibition (Lineweaver–Burk plots) (Km constant, Vmax decreases with inhibitor concentration) | SMILES | Hill-slope | IC50 |
| --- | --- | --- | --- |
| – | O=c1cc(-c2ccccc2)oc2cc(O)c(O)c(O)c12 [Baicalein] | much higher | – |
| non‐competitive LOX inhibition | CCCCCC#CCC#CCOC(=O)CCCC[C@@H]1SC[C@@H]2NC(=O)N[C@@H]21 [Labelox B (3)] | – | 0.62 µM and 0.6 µM |
| – | c1ccc2c(c1)SCc1c-2[nH]c2ccccc12 [PD146176] | 1 | ~4 µM |
